“And” between values parts separate entries of the source, which are not always exact repeats. Identical values can stand only once. Like-named read-outs stand apart in the source and are kept apart here.

This data set is described as follows: UV spectrum: absorption maxima, molar extinction coefficient and K value. The format is physicochemical. The settings on record: for εM: in M-1·cm-1 (unit assumed); for UV absorption peaks: does not depend on the solvent nature and pH values.

As for “Diethanolamine methoxy hydroxycinnamate [DEA methoxycinnamate]”, the K value amounted to 79.

In turn, `CCCCC(CC)COC(=O)C=Cc1ccc(OC)cc1` (stereo not shown) [Octyl methoxycinnamate, 2-ethylhexyl-p-methoxycinnamate] had a Max ads. (Solvent system Ethanol) of 311.

Turning to `Nc1ccc(C(=O)OCC(O)CO)cc1` (stereo not shown) [Glyceryl PABA, 1,2,3-propanetriol,], under “Solvent system Ethanol”, the Max ads. is 297.

With `CCCCC(CC)COC(=O)c1ccccc1O` (stereo not shown) [Octyl salicylate, 2-ethylhexyl salicylate], the Max ads. (Solvent system Ethanol) was 307.

In the case of `COc1ccc(C(=O)CC(=O)c2ccc(C(C)(C)C)cc2)cc1` [Butyl methoxy dibenzoyl methane, 4-t-butyl-4′-methoxydibenzoyl methane], the Max ads. (Solvent system Ethanol) is recorded as 358.

For the compound `CC(C)c1ccc(C(=O)CC(=O)c2ccccc2)cc1` [4-isopropyl dibenzoyl methane, 1-p-cumenyl-3-phenylpropane-1,3-dione], the Max ads. (Solvent system Ethanol) amounted to 345.

With `CC1CC(OC(=O)c2ccccc2O)CC(C)(C)C1` (stereo not shown) [Homosalate, 3,3,5-trimethyl cyclohexyl-2-h drox benzoate], the Max ads. (Solvent system Ethanol) is on record as 306.

Take `CCCCC(CC)COC(=O)c1ccc(N(C)C)cc1` (stereo not shown) [Octyl dimethyl PABA, 2-ethylbexyl p-dimethylaminobenzoate]: where the note is “Solvent system Ethanol”, the Max ads. is 311.

As to 3,4,5-trihydroxystilbene [Resveratrol], the UV absorption peaks was 216 nm and 305 nm and 309 nm. Besides, the εM (at 216 nm) is given as 19,836. Further, the εM (at 305 nm) was 28,044. Also, the εM (at 309 nm) is 27,816. For the same compound, the UV absorption peaks (listed as resveratrol) was 305 nm and 309 nm.

Compound `Cc1ccc(C=C2C(=O)C3(C)CCC2C3(C)C)cc1` (stereo not shown) [3-(4-methylbenzylidene)-camphor, 3-(4-methylbenzylidene)-bornan-2-one] showed a Max ads. (Solvent system Ethanol) of 300.

As for `CCOC(=O)c1ccc(N(CC(C)O)CC(C)O)cc1` (stereo not shown) [Ethyl dihydroxypropyl PABA, Ethyl-4-bis(2-hydroxypropyl)amino benzoic acid], the K value was 119, the Max ads. is 311 and the “εM (Molar extinction coefficient)” value was 27,000.

Turning to `O=S(=O)(O)c1ccc2nc(-c3ccccc3)[nH]c2c1` [Novantisol, 2-phenyl-benzimidazole-5-sulphonic acid], where the note is “0,1 N NaOH”, the Max ads. is 305.

Compound `Nc1ccc(C(=O)O)cc1` [PABA, 4-amino benzoic acid] came in with a Max ads. (Solvent system Ethanol) of 283.

These data come from US20040009197A1 (priority 2000, published 2004).
